This is an account of results in ChEMBL document CHEMBL1132561, “Identification and characterization of m1 selective muscarinic receptor antagonists1” (J Med Chem, 1999).

In assay [1] the target is T1, Muscarinic acetylcholine receptor M4 (Homo sapiens, UniProt P08173).
T1 sequence (P08173 whole entry): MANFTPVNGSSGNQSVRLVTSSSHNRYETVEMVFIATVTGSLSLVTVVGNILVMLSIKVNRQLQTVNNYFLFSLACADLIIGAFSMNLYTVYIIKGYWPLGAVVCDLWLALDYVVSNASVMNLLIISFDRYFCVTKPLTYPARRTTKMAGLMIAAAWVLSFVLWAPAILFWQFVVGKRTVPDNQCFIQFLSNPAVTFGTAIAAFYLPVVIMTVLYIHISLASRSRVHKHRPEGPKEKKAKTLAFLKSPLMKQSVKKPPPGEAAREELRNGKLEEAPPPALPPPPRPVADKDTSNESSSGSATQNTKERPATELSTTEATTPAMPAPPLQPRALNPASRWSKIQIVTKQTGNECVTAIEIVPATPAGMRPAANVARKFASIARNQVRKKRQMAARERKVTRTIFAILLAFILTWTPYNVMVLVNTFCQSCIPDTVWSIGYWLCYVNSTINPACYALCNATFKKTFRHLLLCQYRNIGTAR
The assay can be described thus: biochemical. The assay is classed as cell-based, CHO.
Description: Displacement of [3H]NMS binding to human Muscarinic acetylcholine receptor M4 using membranes from transfected CHO cells

The target in assay [2] is T2, Muscarinic acetylcholine receptor M2 (Homo sapiens, UniProt P08172).
T2 sequence (P08172 whole entry): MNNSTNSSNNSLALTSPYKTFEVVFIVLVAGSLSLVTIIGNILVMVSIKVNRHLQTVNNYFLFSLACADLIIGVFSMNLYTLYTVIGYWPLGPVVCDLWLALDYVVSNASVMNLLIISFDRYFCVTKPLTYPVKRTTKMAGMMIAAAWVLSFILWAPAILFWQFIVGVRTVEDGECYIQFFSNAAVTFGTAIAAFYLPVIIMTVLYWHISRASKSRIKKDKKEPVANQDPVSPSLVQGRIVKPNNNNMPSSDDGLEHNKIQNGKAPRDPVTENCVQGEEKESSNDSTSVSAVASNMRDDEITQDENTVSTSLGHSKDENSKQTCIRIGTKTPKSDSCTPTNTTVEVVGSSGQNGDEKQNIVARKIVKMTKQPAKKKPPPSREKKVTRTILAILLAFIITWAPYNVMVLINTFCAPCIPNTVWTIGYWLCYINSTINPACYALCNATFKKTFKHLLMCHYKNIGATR
The assay can be described thus: biochemical. The assay is classed as cell-based, CHO.
Description: Displacement of [3H]NMS binding to human Muscarinic acetylcholine receptor M2 using membranes from transfected CHO cells

Molecules are shown by their SMILES.

By IC50 is commonly meant the concentration that inhibits the measured activity by half. Low readings indicate greater potency, high ones weaker potency. Compound `CCCCCCCCOC(=O)C1CN(CC)CC=C1c1ccccc1` (configuration not stated) showed an IC50 in assay [1] of 1250 nM.
As for `CCCCCCCCOC(=O)C1=C(c2ccccc2)CCN(CC)C1`, the figures for the IC50 in assay [1] and in assay [2] were 259 nM and 52.5 nM, respectively.
Take `CCN1CCC(c2ccccc2)=C(C(=O)OCC(c2ccccc2)c2ccccc2)C1`: the IC50 amounted to 7710 nM in assay [1] and 2570 nM in assay [2].
For `CCN1CC=C(c2ccccc2)C(C(=O)OCC(c2ccccc2)c2ccccc2)C1` (configuration not stated), in that order: 4160 nM and 475 nM.
For `CCCCCCOC(=O)[C@H]1CN(CC)CC[C@H]1c1ccccc1`, in that order: 573 nM and 405 nM.
Consider `CCN1CC=C(c2ccccc2)C(C(=O)OCCCc2ccccc2)C1` (configuration not stated), for which the IC50 in assay [1] came out at 1130 nM; in assay [2] it was 2210 nM.
In the case of `CCN1CC=C(c2ccccc2)C(C(=O)OCc2ccccc2)C1` (configuration not stated), the IC50 worked out at 146 nM in assay [1] and 241 nM in assay [2].
For `CCN1CCC(c2ccccc2)=C(C(=O)OCc2ccccc2)C1`, the figures for the IC50 in assay [1] and in assay [2] were 473 nM and 451 nM, respectively.
The like results for `CCN1CCC(c2ccccc2)=C(C(=O)OCCCc2ccccc2)C1` were, in that order, 1160 nM and 1040 nM.
